{"source": "ChEMBL document CHEMBL4190285", "about": "“Borapetoside E, a Clerodane Diterpenoid Extracted from Tinospora crispa, Improves Hyperglycemia and Hyperlipidemia in High-Fat-Diet-Induced Type 2 Diabetes Mice” (J Nat Prod, 2017)", "key": {"Mus musculus [1]": {"system": "Mus musculus", "assay": "Down regulation of ACL1 mRNA expression in HFD-induced obese C57BL/6J mouse liver at 20 to 40 mg/kg, ip administered twice daily for 2.5 days measured at 2 hrs post last dose by RT-PCR analysis", "assay_type": "functional, organism-based"}, "Mus musculus [2]": {"system": "Mus musculus", "assay": "Improvement in insulin resistance in high fat diet-induced obese C57BL/6J mouse assessed as reduction in blood glucose AUC at 40 mg/kg, ip administered as single dose pretreated for 2 hrs followed by insulin challenge measured up to 2 hrs by ITT", "assay_type": "functional, organism-based"}, "Mus musculus [3]": {"system": "Mus musculus", "assay": "Antihyperglycemic activity in high fat diet-induced obese C57BL/6J mouse assessed as reduction in blood glucose level at 20 to 40 mg/kg, ip administered twice daily for 2.5 days measured at 3 days post last dose", "assay_type": "functional, organism-based"}, "Mus musculus [4]": {"system": "Mus musculus", "assay": "Down regulation of n-SREBP1 expression in HFD-induced obese C57BL/6J mouse liver at 20 to 40 mg/kg, ip administered twice daily for 2.5 days measured at 2 hrs post last dose by Western blot analysis", "assay_type": "functional, organism-based"}, "Mus musculus [5]": {"system": "Mus musculus", "assay": "Toxicity in HFFD-induced obese C57BL/6J mouse assessed as serum creatinine kinase level at 40 mg/kg, ip administered twice daily for 2.5 days followed by once daily dosing up to 16 days measured at 2 hrs post last dose (reference value: 551.93 +/- 126.48 U/L)", "assay_type": "organism-based", "settings": "in vivo"}, "Mus musculus [6]": {"system": "Mus musculus", "assay": "Effect on respiratory exchange ratios in HFD-induced obese C57BL/6J mouse at 40 mg/kg, ip administered twice daily for 2.5 days measured up to 12.6 hrs under dark condition", "assay_type": "functional, organism-based"}, "Mus musculus [7]": {"system": "Mus musculus", "assay": "Down regulation of HMGCR mRNA expression in HFD-induced obese C57BL/6J mouse liver at 20 to 40 mg/kg, ip administered twice daily for 2.5 days measured at 2 hrs post last dose by RT-PCR analysis", "assay_type": "functional, organism-based"}, "Mus musculus [8]": {"system": "Mus musculus", "assay": "Effect on respiratory exchange ratios in HFD-induced obese C57BL/6J mouse at 40 mg/kg, ip administered twice daily for 2.5 days incubated for 12.6 hrs under dark condition followed by redosing on day 3 for 2 times", "assay_type": "functional, organism-based"}, "Mus musculus [9]": {"system": "Mus musculus", "assay": "Down regulation of ABCG8 mRNA expression in HFD-induced obese C57BL/6J mouse liver at 20 to 40 mg/kg, ip administered twice daily for 2.5 days measured at 2 hrs post last dose by RT-PCR analysis", "assay_type": "functional, organism-based"}, "Mus musculus [10]": {"system": "Mus musculus", "assay": "Down regulation of SREBP2 mRNA expression in HFD-induced obese C57BL/6J mouse liver at 20 to 40 mg/kg, ip administered twice daily for 2.5 days measured at 2 hrs post last dose by RT-PCR analysis", "assay_type": "functional, organism-based"}, "Mus musculus [11]": {"system": "Mus musculus", "assay": "Antihyperglycemic activity in high fat diet-induced obese C57BL/6J mouse assessed as reduction in blood glucose AUC at 40 mg/kg, ip pretreated twice daily for 2.5 days followed by glucose challenge at 2 hrs post last dose by OGTT", "assay_type": "functional, organism-based"}, "Mus musculus [12]": {"system": "Mus musculus", "assay": "Antihyperlipidemic activity in high fat diet-induced obese C57BL/6J mouse assessed as serum total cholesterol levels at 40 mg/kg, ip administered twice daily for 2.5 days measured at 2 hrs post last dose (reference value: 4.56 +/- 1.01 mmol/L)", "assay_type": "functional"}, "Mus musculus [13]": {"system": "Mus musculus", "assay": "Down regulation of pre-SREBP1 expression in HFD-induced obese C57BL/6J mouse liver at 20 to 40 mg/kg, ip administered twice daily for 2.5 days measured at 2 hrs post last dose by Western blot analysis", "assay_type": "functional, organism-based"}, "Mus musculus [14]": {"system": "Mus musculus", "assay": "Improvement in serum ALT level in HFFD-induced obese C57BL/6J mouse assessed as serum ALT level at 40 mg/kg, ip administered twice daily for 2.5 days followed by once daily dosing up to 16 days measured at 2 hrs post last dose (reference value: 20.49 +/- 4.5 IU/L)", "assay_type": "functional"}, "Mus musculus [15]": {"system": "Mus musculus", "assay": "Increase in carbon dioxide production in HFD-induced obese C57BL/6J mouse at 40 mg/kg, ip administered twice daily for 2.5 days incubated for 12.6 hrs under dark condition followed by redosing on day 3 for 2 times", "assay_type": "functional, organism-based"}, "Mus musculus [16]": {"system": "Mus musculus", "assay": "Down regulation of FAS mRNA expression in HFD-induced obese C57BL/6J mouse adipose tissue at 20 to 40 mg/kg, ip administered twice daily for 2.5 days measured at 2 hrs post last dose by RT-PCR analysis", "assay_type": "functional, organism-based"}, "Mus musculus [17]": {"system": "Mus musculus", "assay": "Antihyperlipidemic activity in high fat diet-induced obese C57BL/6J mouse assessed as serum HDL-C levels at 40 mg/kg, ip administered twice daily for 2.5 days measured at 2 hrs post last dose (reference value: 1.82 +/- 0.58 mmol/L)", "assay_type": "functional"}, "Mus musculus [18]": {"system": "Mus musculus", "assay": "Increase in phosphorylated AMPKalpha level in HFFD-induced obese C57BL/6J mouse liver at 20 to 40 mg/kg, ip administered twice daily for 2.5 days measured at 2 hrs post last dose by Western blot analysis", "assay_type": "functional, organism-based"}, "Mus musculus [19]": {"system": "Mus musculus", "assay": "Improvement in insulin resistance in high fat diet-induced obese C57BL/6J mouse assessed as increase in phosphorylated GSK3beta level in liver at 40 mg/kg, ip administered twice daily for 2.5 days measured at 2 hrs post last dose by Western blot analysis", "assay_type": "functional, organism-based"}, "Mus musculus [20]": {"system": "Mus musculus", "assay": "Antihyperlipidemic activity in high fat diet-induced obese C57BL/6J mouse assessed as reduction in cholesterol level in epididymis adipose tissue at 20 to 40 mg/kg, ip administered twice daily for 2.5 days measured at 2 hrs post last dose", "assay_type": "functional, organism-based"}, "Mus musculus [21]": {"system": "Mus musculus", "assay": "Increase in oxygen consumption in HFFD-induced obese C57BL/6J mouse at 40 mg/kg, ip administered twice daily for 2.5 days measured up to 12.6 hrs under dark condition", "assay_type": "functional, organism-based"}, "Mus musculus [22]": {"system": "Mus musculus", "assay": "Down regulation of SREBP1 mRNA expression in HFD-induced obese C57BL/6J mouse adipose tissue at 20 to 40 mg/kg, ip administered twice daily for 2.5 days measured at 2 hrs post last dose by RT-PCR analysis", "assay_type": "functional, organism-based"}, "Mus musculus [23]": {"system": "Mus musculus", "assay": "Antiobesity activity in HFFD-induced obese C57BL/6J mouse assessed as reduction in body weight at 40 mg/kg, ip administered twice daily for 2.5 days followed by once daily dosing up to 16 days relative to control", "assay_type": "functional", "parameters": "scale not given: the % may be the effect or the level left"}, "Mus musculus [24]": {"system": "Mus musculus", "assay": "Improvement in insulin resistance in high fat diet-induced obese C57BL/6J mouse assessed as increase in GLUT2 expression in skeletal muscle at 40 mg/kg, ip administered twice daily for 2.5 days measured at 2 hrs post last dose by Western blot analysis", "assay_type": "functional, organism-based"}, "Mus musculus [25]": {"system": "Mus musculus", "assay": "Antihyperlipidemic activity in high fat diet-induced obese C57BL/6J mouse assessed as serum triglyceride levels at 40 mg/kg, ip administered twice daily for 2.5 days measured at 2 hrs post last dose (reference value: 1.31 +/- 0.48 mmol/L)", "assay_type": "functional"}, "Mus musculus [26]": {"system": "Mus musculus", "assay": "Improvement in insulin resistance in high fat diet-induced obese C57BL/6J mouse assessed as reduction in fasting serum glucose level at 40 mg/kg, ip pretreated twice daily for 2.5 days followed by insulin challenge at 2 hrs post last dose measured up to 2 hrs by ITT", "assay_type": "functional, organism-based"}, "Mus musculus [27]": {"system": "Mus musculus", "assay": "Antihyperlipidemic activity in high fat diet-induced obese C57BL/6J mouse assessed as reduction in triglyceride level in epididymis adipose tissue at 20 to 40 mg/kg, ip administered twice daily for 2.5 days measured at 2 hrs post last dose", "assay_type": "functional, organism-based"}, "Mus musculus [28]": {"system": "Mus musculus", "assay": "Down regulation of HMGCR mRNA expression in HFD-induced obese C57BL/6J mouse adipose tissue at 20 to 40 mg/kg, ip administered twice daily for 2.5 days measured at 2 hrs post last dose by RT-PCR analysis", "assay_type": "functional, organism-based"}}, "note": "Activity calls are given as the source filed them. The calls are words filed in the database; no cut-off is given here.", "data": [{"smiles": "COC(=O)C1=CCC[C@H]2[C@](C)(C[C@@H](O[C@@H]3O[C@H](CO)[C@@H](O)[C@H](O)[C@H]3O)c3ccoc3)[C@H]3C[C@H](OC3=O)[C@@]12C", "values": [{"measurement": "Activity", "setting": "Mus musculus [1]", "result": "Active"}, {"measurement": "Activity", "setting": "Mus musculus [2]", "result": "Active"}, {"measurement": "Activity", "setting": "Mus musculus [3]", "result": "Active"}, {"measurement": "Activity", "setting": "Mus musculus [4]", "result": "Active"}, {"measurement": "Activity", "setting": "Mus musculus [5]", "result": 520.4, "unit": "U/L"}, {"measurement": "Activity", "setting": "Mus musculus [6]", "result": "inactive"}, {"measurement": "Activity", "setting": "Mus musculus [7]", "result": "Active"}, {"measurement": "Activity", "setting": "Mus musculus [8]", "result": "inactive"}, {"measurement": "Activity", "setting": "Mus musculus [9]", "result": "Active"}, {"measurement": "Activity", "setting": "Mus musculus [10]", "result": "Active"}, {"measurement": "Activity", "setting": "Mus musculus [11]", "result": "Active"}, {"measurement": "Activity", "setting": "Mus musculus [12]", "result": 2.24, "unit": "mmol/L"}, {"measurement": "Activity", "setting": "Mus musculus [13]", "result": "Active"}, {"measurement": "Activity", "setting": "Mus musculus [14]", "result": 15.75, "unit": "IU/L"}, {"measurement": "Activity", "setting": "Mus musculus [15]", "result": "Active"}, {"measurement": "Activity", "setting": "Mus musculus [16]", "result": "Active"}, {"measurement": "Activity", "setting": "Mus musculus [17]", "result": 1.31, "unit": "mmol/L"}, {"measurement": "Activity", "setting": "Mus musculus [18]", "result": "inactive"}, {"measurement": "Activity", "setting": "Mus musculus [19]", "result": "Active"}, {"measurement": "Activity", "setting": "Mus musculus [20]", "result": "Active"}, {"measurement": "Activity", "setting": "Mus musculus [21]", "result": "Active"}, {"measurement": "Activity", "setting": "Mus musculus [22]", "result": "Active"}, {"measurement": "Activity", "setting": "Mus musculus [23]", "result": 8.7, "unit": "%"}, {"measurement": "Activity", "setting": "Mus musculus [24]", "result": "Active"}, {"measurement": "Activity", "setting": "Mus musculus [25]", "result": 0.5, "unit": "mmol/L"}, {"measurement": "Activity", "setting": "Mus musculus [26]", "result": "Active"}, {"measurement": "Activity", "setting": "Mus musculus [27]", "result": "Active"}, {"measurement": "Activity", "setting": "Mus musculus [28]", "result": "Active"}]}]}
